Reference: ChEMBL document CHEMBL4152195, “Lipid reducing activity and toxicity profiles of a library of polyphenol derivatives” (Eur J Med Chem, 2018)
Calls of active or inactive are those of the source. The rule behind the calls is not given here.

Tests used:
3T3-L1 [1] = experiment: Cytotoxicity against mouse 3T3L1 cells at 50 uM after 24 hrs by sulforhodamine B assay; assay type: cell-based; conditions: 3t3-l1, 24 h
Danio rerio [2] = species: Danio rerio; experiment: Toxicity in zebra fish larvae at 5 uM after 48 hrs; assay type: organism-based; conditions: zebrafish, in vivo
3T3-L1 [3] = experiment: Cytotoxicity against mouse 3T3L1 cells at 50 uM after 48 hrs by sulforhodamine B assay; assay type: cell-based; conditions: 3t3-l1, 48 h
Danio rerio [4] = species: Danio rerio; experiment: Lipid lowering activity in zebrafish embryos at 5 uM by Nile red fat metabolism assay; assay type: functional, organism-based
Danio rerio [5] = species: Danio rerio; experiment: Lipid lowering activity in zebrafish embryos by Nile red fat metabolism assay; assay type: functional, organism-based

Compound | Activity (3T3-L1 [1]) [%] | Activity (Danio rerio [2]) [%] | Activity (3T3-L1 [3]) [%] | Activity (Danio rerio [4]) | EC50 (Danio rerio [5]) [nM]
O=C(COc1ccc2c(=O)c3ccccc3oc2c1)N[C@@H](c1ccccc1)[C@H](O)c1ccccc1 | 76 to 100 | 0 to 25 | 0 to 25 | – | –
C=Cc1cc2c(=O)c3ccccc3oc2c(OC)c1O | 0 to 25 | 0 to 25 | 51 to 75 | Active | –
COc1c(O)ccc2c(=O)c3ccccc3oc12 | 0 to 25 | 0 to 25 | 0 to 25 | – | –
COC(=O)c1ccccc1Oc1ccc(OC)c(OC)c1 | 0 to 25 | 0 to 25 | 51 to 75 | – | –
COc1ccc2oc3ccccc3c(=O)c2c1 | 51 to 75 | 0 to 25 | 0 to 25 | Active | –
O=C(COc1ccc2c(=O)c3ccccc3oc2c1)N[C@H](c1ccccc1)[C@@H](O)c1ccccc1 | 76 to 100 | 0 to 25 | 0 to 25 | Active | –
CC1(C)C=Cc2c(cc3c(=O)c4ccccc4oc3c2O)O1 | 0 to 25 | 0 to 25 | 0 to 25 | Active | 560
COc1cc2c(c3oc4ccccc4c(=O)c13)OC(C)(C)CC2 | 0 to 25 | 0 to 25 | 0 to 25 | Active | 730
COc1c2c(cc3c(=O)c4ccc(O)cc4oc13)CCC(C)(C)O2 | 0 to 25 | 0 to 25 | 0 to 25 | – | –
O=c1c2ccccc2oc2cccc(OCCCCCCOc3cccc4oc5ccccc5c(=O)c34)c12 | 0 to 25 | 0 to 25 | 51 to 75 | – | –
COc1cc(/C=C/C(=O)/C=C/c2ccc(O)c(OC)c2)ccc1O | 0 to 25 | 0 to 25 | 0 to 25 | Active | –
CC(C)[C@@H](CO)NC(=O)COc1ccc2c(=O)c3ccccc3oc2c1 | 0 to 25 | 0 to 25 | 0 to 25 | – | –
COc1ccc2c(=O)c3ccccc3oc2c1OC | 0 to 25 | 0 to 25 | 0 to 25 | Active | 360
COc1cccc2oc3ccccc3c(=O)c12 | 0 to 25 | 0 to 25 | 0 to 25 | Active | 790
O=Cc1cc(O)c(O)c2oc3ccccc3c(=O)c12 | 0 to 25 | 0 to 25 | 51 to 75 | – | –
COc1cccc2c(=O)c3cc4c(c(O)c3oc12)OC(C)(C)CC4 | 51 to 75 | 0 to 25 | 51 to 75 | – | –
CC1(C)C=Cc2cc3c(=O)c4ccccc4oc3c(O)c2O1 | 0 to 25 | 0 to 25 | 0 to 25 | Active | 1440
COc1c(O)cc2oc3cc(O)c(CC=C(C)C)c(O)c3c(=O)c2c1CC=C(C)C [MANGOSTIN] | 76 to 100 | 76 to 100 | 76 to 100 | – | –
COc1cccc2c(=O)c3ccccc3oc12 | 26 to 50 | 0 to 25 | 0 to 25 | Active | –
COc1cc(/C=C/C(=O)/C=C/c2ccc(OCc3cn(CCO[C@H]4O[C@@H](COC(C)=O)[C@H](OC(C)=O)[C@@H](OC(C)=O)[C@@H]4NC(C)=O)nn3)c(OC)c2)ccc1OCc1cn(CCO[C@@H]2O[C@H](COC(C)=O)[C@@H](OC(C)=O)[C@H](OC(C)=O)[C@@H]2NC(C)=O)nn1 | 0 to 25 | 0 to 25 | 0 to 25 | – | –
O=c1c2ccccc2oc2cc(O)c(O)cc12 | 0 to 25 | 0 to 25 | 0 to 25 | Active | 980

Compound | Activity (3T3-L1 [1]) [%] | Activity (Danio rerio [2]) [%] | Activity (3T3-L1 [3]) [%] | Activity (Danio rerio [4]) | EC50 (Danio rerio [5]) [nM]
O=c1c2ccc(O)cc2oc2cc(O)ccc12 | 0 to 25 | 0 to 25 | 0 to 25 | – | –
C#CCOc1ccc(/C=C/C(=O)/C=C/c2ccc(OCC#C)c(OC)c2)cc1OC | 26 to 50 | 0 to 25 | 0 to 25 | Active | –
COc1ccc2c(=O)c3ccccc3oc2c1O | 0 to 25 | 0 to 25 | 0 to 25 | Active | 480
COc1cc2oc3c(OC)c4c(cc3c(=O)c2cc1OC)CCC(C)(C)O4 | 0 to 25 | 0 to 25 | 0 to 25 | Active | 540
COc1cc(C(Br)Br)c2c(=O)c3ccccc3oc2c1OC | 26 to 50 | 0 to 25 | 51 to 75 | Active | –
O=c1c2ccccc2oc2cccc(O)c12 | 0 to 25 | 0 to 25 | 0 to 25 | Active | 620
O=C(O)Cc1ccc2c(=O)c3ccccc3oc2c1 | 0 to 25 | 0 to 25 | 0 to 25 | Active | –
O=c1c2ccccc2oc2c(O)cccc12 | 0 to 25 | 0 to 25 | 0 to 25 | – | –
CCCOc1ccc(NCCN(CC)CC)c2c(=O)c3ccccc3sc12.Cl | 76 to 100 | 76 to 100 | 76 to 100 | – | –
CC(C)=CCOc1ccc2oc3ccccc3c(=O)c2c1OCC=C(C)C | 26 to 50 | 0 to 25 | 51 to 75 | – | –
CC(=O)Oc1ccc(C(=O)c2ccc(OC(C)=O)c(OC(C)=O)c2)cc1OC(C)=O | 26 to 50 | 0 to 25 | 51 to 75 | – | –
C=CCOc1ccc(/C=C/C(=O)/C=C/c2ccc(OCC=C)c(OC)c2)cc1OC | 0 to 25 | 0 to 25 | 0 to 25 | Active | –
COc1ccc2c(=O)c3cc(C(=O)N[C@H](CO)c4ccccc4)ccc3oc2c1 | 51 to 75 | 0 to 25 | 26 to 50 | – | –
O=C(O)Cc1ccc2oc3ccccc3c(=O)c2c1 | 0 to 25 | 0 to 25 | 0 to 25 | – | –
CC(C)[C@H](CO)NC(=O)COc1ccc2c(=O)c3ccccc3oc2c1 | 0 to 25 | 0 to 25 | 0 to 25 | – | –
COc1ccccc1C(=O)c1ccc(OC)c(OC)c1O | 0 to 25 | 0 to 25 | 51 to 75 | – | –
O=c1c2ccccc2oc2cccc(OCCCCCBr)c12 | 0 to 25 | 0 to 25 | 26 to 50 | Active | –
Cc1c(O)cc2oc3ccccc3c(=O)c2c1O | 26 to 50 | 0 to 25 | 0 to 25 | – | –
CCCOc1ccc(NCCN(CC)CC)c2c(=O)c3ccccc3sc12 | 0 to 100 | 76 to 100 | 51 to 100 | – | –
O=c1c2ccccc2sc2c(O)ccc(Cl)c12 | 0 to 25 | 0 to 25 | 51 to 75 | Active | –
CCCOc1ccc(N2CCCCC2)c2c(=O)c3ccccc3sc12 | 26 to 50 | 76 to 100 | 51 to 75 | – | –

Compound | Activity (3T3-L1 [1]) [%] | Activity (Danio rerio [2]) [%] | Activity (3T3-L1 [3]) [%] | Activity (Danio rerio [4]) | EC50 (Danio rerio [5]) [nM]
CCCOc1ccc(OC)c2c(=O)c3ccccc3sc12 | 0 to 25 | 0 to 25 | 51 to 75 | Active | –
COc1c2c(cc3c(=O)c4ccccc4oc13)OC(C)(C)C=C2 | 26 to 50 | 0 to 25 | 51 to 75 | Active | –
COc1cc(C=O)c2c(=O)c3ccccc3oc2c1OC | 0 to 25 | 0 to 25 | 51 to 75 | Active | –
O=c1c2ccccc2oc2c(O)c(O)ccc12 [3,4-DIHYDROXYXANTHONE] | 26 to 50 | 0 to 25 | 51 to 75 | Active | –
C#CCOc1ccc2c(=O)c3ccc(OCC#C)cc3oc2c1 | 0 to 25 | 0 to 25 | 0 to 25 | – | –
O=Cc1c(O)ccc2c(=O)c3ccc(O)c(C=O)c3oc12 | 26 to 50 | 0 to 25 | 51 to 75 | – | –
COc1ccc2c(=O)c3cc(C(=O)N[C@@H](CO)c4ccccc4)ccc3oc2c1 | 0 to 25 | 0 to 25 | 0 to 25 | Active | –
COc1cc(CO)c2c(=O)c3ccccc3oc2c1OC | 0 to 25 | 0 to 25 | 26 to 50 | Active | –
COc1cc2oc3c(OC)c4c(cc3c(=O)c2cc1OC)OC(C)(C)CC4 | 0 to 25 | 0 to 25 | 0 to 25 | – | –
O=c1c2ccccc2oc2ccccc12 [XANTHONE] | 0 to 25 | 0 to 25 | 0 to 25 | – | –
COc1cc([C@H]2Oc3ccc4c(=O)c5ccccc5oc4c3O[C@@H]2CO)ccc1O | 0 to 25 | 0 to 25 | 0 to 25 | – | –
O=C(O)Cc1cccc2oc3ccccc3c(=O)c12 | 0 to 25 | 0 to 25 | 26 to 50 | – | –
O=c1c2ccccc2oc2cc(O)ccc12 | 0 to 25 | 0 to 25 | 0 to 25 | – | –
CCCOc1ccc(NNC(=O)c2ccncc2)c2c(=O)c3ccccc3sc12 | 0 to 25 | 51 to 75 | 51 to 75 | – | –
COc1cc2c(c3oc4ccccc4c(=O)c13)OC(C)(C)C=C2 | 51 to 75 | 76 to 100 | 51 to 75 | Active | –
COc1ccc(Oc2ccccc2C(=O)O)cc1OC | 0 to 25 | 0 to 25 | 0 to 25 | – | –
O=c1c2ccc(O[C@H]3O[C@H](CO)[C@@H](O)[C@@H](O)[C@@H]3O)cc2oc2cc(O[C@@H]3O[C@@H](CO)[C@H](O)C(O)[C@H]3O)ccc12 (some centres undefined) | 0 to 25 | 0 to 25 | 26 to 50 | – | –
O=c1c2cc(O)c(O)cc2oc2cc(O)c([C@@H]3O[C@H](CO)[C@@H](O)[C@H](O)[C@H]3O)c(O)c12 [MANGIFERIN] | 0 to 25 | 0 to 25 | 0 to 25 | – | –
COc1cc(C=O)c2c(=O)c3ccccc3oc2c1O | 0 to 25 | 0 to 25 | 51 to 75 | Active | –
CCN(CC)c1ccc2c(=O)c3cc4c(c(OC)c3oc2c1)CCC(C)(C)O4 | 51 to 75 | 76 to 100 | 51 to 75 | Active | –
